Measured values taken from US8557812B2, “Small molecule inhibitors of anti-apoptotic BCL-2 family members and the uses thereof” (The Regents of the University of Michigan, priority 2004, dated 2013).

Columns and labels:
human Bcl-xL = human Bcl-xL (Homo sapiens, UniProt Q07817); experiment: Fluorescence polarization in vitro Bcl-xL binding assay; conditions: displacement of Flu-Bak peptide
Source text: For determination of the binding affinity to Bcl-xL protein a human Bcl-xL recombinant His-tagged protein without the C-terminus hydrophobic tail and the Bak-16mer BH3 peptide labeled with 6-carboxyfluorescein succinimidyl ester (FAM) were used.

Bcl-2 = Bcl-2 (Homo sapiens, UniProt P10415); experiment: Fluorescence polarization in vitro Bcl-2 binding assay
Method: Bcl-2 used in this assay is a recombinant His-fused soluble protein. […] Inc., Research Triangle Park, N.C.). […] The unlabeled Bid peptide is used as the positive control. The Ki values were calculated using our developed equation for FP assay (Nikolovska-Coleska et al., Anal. Biochem., 2004, in press). The program for calculating a Ki value is available free of charge via the Internet at http://sw16.im.med.umich.edu/software/calc_ki/.

MDA-MB-231 (2LMP) cells = experiment: Cell growth of MDA-MB-231 (2LMP) cells (WST); format: cell-based; conditions: Homo sapiens, read-out: IC50 of cell growth inhibition

human Bcl-xL, sequence (Q07817 1-209 limits assumed): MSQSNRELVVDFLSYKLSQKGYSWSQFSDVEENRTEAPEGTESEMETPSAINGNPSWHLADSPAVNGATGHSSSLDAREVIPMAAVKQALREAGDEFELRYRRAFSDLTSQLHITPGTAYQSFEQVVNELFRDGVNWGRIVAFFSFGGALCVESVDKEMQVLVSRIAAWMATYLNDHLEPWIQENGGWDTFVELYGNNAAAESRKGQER
Bcl-2, sequence (P10415 92-205 limits assumed): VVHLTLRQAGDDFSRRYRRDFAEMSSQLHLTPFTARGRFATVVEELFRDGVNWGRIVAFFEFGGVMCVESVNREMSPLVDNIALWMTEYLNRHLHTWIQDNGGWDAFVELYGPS

Compound | IC50 (human Bcl-xL) [nM] | IC50 (Bcl-2) [nM] | IC50 (MDA-MB-231 (2LMP) cells) [nM]
O=C(c1cc(S(=O)(=O)N2CCc3ccccc3C2)c(O)c(O)c1O)N1CCc2ccc(S(=O)(=O)NCCc3ccc(Cl)cc3)cc2C1 [TM-1209] | > 1000 | ≤ 1000 | –
O=C(c1ccc(Oc2ccccc2)cc1)c1ccc(O)c(O)c1O [TM-166] | – | – | 100 to 20000
Cc1cc(Cc2cc(Cc3ccccc3)c(O)c(O)c2O)c(C(C)C)cc1Oc1ccc2ccccc2n1 [TM-150] | – | – | 100 to 20000
Cc1cc(C(=O)c2cc(Cc3ccccc3)c(O)c(O)c2O)c(C(C)C)cc1Oc1ccc([N+](=O)[O-])c(C(F)(F)F)c1 [TM-149] | – | – | 100 to 20000
CC(C)c1cc(Cc2cc(Cc3ccccc3)c(O)c(O)c2O)ccc1Oc1ccnc2ccccc12 [TM-154] | – | – | 100 to 20000
O=C(c1cc(S(=O)(=O)N2CCc3ccccc3C2)c(O)c(O)c1O)N1CCc2ccc(S(=O)(=O)NCCc3cccc(Oc4ccccc4)c3)cc2C1 [TM-1211] | > 1000 | ≤ 1000 | –
O=C(c1cc(S(=O)(=O)N2CCc3ccccc3C2)c(O)c(O)c1O)N1CCc2ccc(S(=O)(=O)NCCCc3ccccc3)cc2C1 [TM-1213] | > 1000 | ≤ 1000 | –
O=C(c1cc(C(=O)c2cccc3ccccc23)c(O)c(O)c1O)c1cccc2ccccc12 [TM-174] | > 1000 | > 1000 | –
CCCCCCCCCCCCCCC(=O)c1cc(C(C)C)c(O)c(O)c1O [TM-110] | – | – | 100 to 20000
Oc1cccc(Cc2ccc(Cc3cc(CCCC4CCCCC4)c(O)c(O)c3O)cc2)c1O [TM-136] | – | – | 100 to 20000
NS(=O)(=O)c1ccc(CCNS(=O)(=O)c2ccc3c(c2)CN(C(=O)c2cc(S(=O)(=O)N4CCc5ccccc5C4)c(O)c(O)c2O)CC3)cc1 [TM-1210] | > 1000 | ≤ 1000 | –
O=C(c1cc(S(=O)(=O)N2CCc3ccccc3C2)c(O)c(O)c1O)N1CCc2ccc(S(=O)(=O)N3CCC(Cc4ccccc4)CC3)cc2C1 [TM-1203] | > 1000 | ≤ 1000 | –
Cc1cc(C(=O)c2cc(Cc3ccccc3)c(O)c(O)c2O)c(C(C)C)cc1Oc1ccc(C(F)(F)F)cc1[N+](=O)[O-] [TM-148] | – | – | 100 to 20000
CCCCCCCCCCC(c1ccccc1)c1cc(Cc2ccc(Br)cc2)c(O)c(O)c1O (stereo not drawn) [TM-125] | – | – | 100 to 20000
O=C(NCc1ccccc1)c1cc(S(=O)(=O)N2CCc3ccc(S(=O)(=O)N4CCCCC4)cc3C2)c(O)c(O)c1O [TM-192] | > 1000 | ≤ 1000 | –
CC(C)c1cc(Cc2cc(Cc3ccccc3)c(O)c(O)c2O)ccc1Oc1ccc([N+](=O)[O-])cc1C(F)(F)F [TM-155] | – | – | 100 to 20000
O=C(c1cc(S(=O)(=O)N2CCc3ccc(S(=O)(=O)N4CCCCC4)cc3C2)c(O)c(O)c1O)N1CCc2ccccc2C1 [TM-190] | > 1000 | ≤ 1000 | –
Cc1cc(Cc2cc(Cc3ccccc3)c(O)c(O)c2O)c(C(C)C)cc1Oc1ccc(C(F)(F)F)cc1[N+](=O)[O-] [TM-144] | – | – | 100 to 20000
Cc1cc(Oc2ccc(Cc3cc(Cc4ccccc4)c(O)c(O)c3O)cc2C(C)C)c2ccccc2n1 [TM-156] | – | – | 100 to 20000
CNS(=O)(=O)c1ccc2c(c1)CN(C(=O)c1cc(S(=O)(=O)N3CCc4ccccc4C3)c(O)c(O)c1O)CC2 [TM-1215] | > 1000 | > 1000 | –
CCCCCCCCCCCc1cc(O)c(O)c(O)c1CCCc1ccccc1 [TM-130] | – | – | 100 to 20000
O=C(c1ccc(Br)cc1)c1cc(CCCc2ccccc2)c(O)c(O)c1O [TM-128] | – | – | 100 to 20000
O=C(c1cc(S(=O)(=O)N2CCc3ccccc3C2)c(O)c(O)c1O)N1CCc2ccc(S(=O)(=O)N3CCCCC3)cc2C1 [TM-193] | > 1000 | > 1000 | –

Compound | IC50 (human Bcl-xL) [nM] | IC50 (Bcl-2) [nM] | IC50 (MDA-MB-231 (2LMP) cells) [nM]
CC(C)CNS(=O)(=O)c1ccc2c(c1)CN(C(=O)c1cc(S(=O)(=O)N3CCc4ccccc4C3)c(O)c(O)c1O)CC2 [TM-194] | > 1000 | > 1000 | –
O=C(c1cc(S(=O)(=O)N2CCc3ccccc3C2)c(O)c(O)c1O)N1CCc2ccc(S(=O)(=O)NCCc3ccccc3)cc2C1 [TM-197] | > 1000 | ≤ 1000 | –
O=C(c1cc(S(=O)(=O)N2CCc3ccccc3C2)c(O)c(O)c1O)N1CCc2ccc(S(=O)(=O)NCc3ccccc3)cc2C1 [TM-196] | > 1000 | > 1000 | –
O=C(c1ccc2ccccc2c1)c1cc(C(=O)c2ccc3ccccc3c2)c(O)c(O)c1O [TM-175] | > 1000 | > 1000 | –
CNS(=O)(=O)c1cc(C(=O)N2CCc3ccc(S(=O)(=O)NCCc4ccccc4)cc3C2)c(O)c(O)c1O [TM-1217] | > 1000 | > 1000 | –
O=C(c1cc(C(=O)C2N=C3C=CC=CC3S2)c(O)c(O)c1O)C1N=C2C=CC=CC2S1 (stereo not drawn) [TM-176] | > 1000 | > 1000 | –
COc1c(C(=O)C2N=C3C=CC=CC3S2)cc(C(=O)C2N=C3C=CC=CC3S2)c(O)c1O (stereo not drawn) [TM-178] | > 1000 | > 1000 | –
O=C(c1ccc(Oc2ccccc2)cc1)c1cc(C(=O)c2nc3ccccc3o2)c(O)c(O)c1O [TM-183] | > 1000 | – | –
Oc1ccc(Cc2ccc(Oc3ccccc3)cc2)c(O)c1O [TM-157] | > 1000 | – | –
O=C(c1cc(S(=O)(=O)N2CCc3ccccc3C2)c(O)c(O)c1O)N1CCc2ccccc2C1 [TM-1214] | > 1000 | > 1000 | –
CC(C)c1cc(Cc2ccc(Oc3ccccc3)cc2)c(O)c(O)c1O [TM-159] | > 1000 | – | –
CN(Cc1ccccc1)S(=O)(=O)c1cc(C(=O)N2CCc3ccc(S(=O)(=O)NCCc4ccccc4)cc3C2)c(O)c(O)c1O [TM-1201] | > 1000 | > 1000 | –
CN(CCc1ccccc1)S(=O)(=O)c1cc(C(=O)N2CCc3ccc(S(=O)(=O)NCCc4ccccc4)cc3C2)c(O)c(O)c1O [TM-1205] | > 1000 | ≤ 1000 | –
O=C(c1ccc(Oc2ccccc2)cc1)c1cc(C(=O)c2nc3ccccc3s2)c(O)c(O)c1O [TM-179] | > 1000 | – | –
NC(=O)[C@H](Cc1ccccc1)NS(=O)(=O)c1ccc2c(c1)CN(C(=O)c1cc(S(=O)(=O)N3CCc4ccccc4C3)c(O)c(O)c1O)CC2 [TM-199] | > 1000 | > 1000 | –
CN(CCc1ccccc1)S(=O)(=O)c1ccc2c(c1)CN(C(=O)c1cc(S(=O)(=O)N3CCc4ccccc4C3)c(O)c(O)c1O)CC2 [TM-1207] | > 1000 | ≤ 1000 | –
O=C(c1cc(S(=O)(=O)N2CCc3ccccc3C2)c(O)c(O)c1O)N1CCc2ccc(S(=O)(=O)N[C@@H](Cc3ccccc3)C(=O)N3CCCCC3)cc2C1 [TM-1200] | > 1000 | > 1000 | –
O=C(c1cc(S(=O)(=O)N2CCc3ccccc3C2)c(O)c(O)c1O)N1CCc2ccc(S(=O)(=O)NCC(c3ccccc3)c3ccccc3)cc2C1 [TM-198] | > 1000 | > 1000 | –
O=C(c1cc(S(=O)(=O)N2CCc3ccccc3C2)c(O)c(O)c1O)N1CCc2ccc(S(=O)(=O)NCCc3ccc(Oc4ccccc4)cc3)cc2C1 [TM-1212] | > 1000 | > 1000 | –
O=C(c1cc(S(=O)(=O)N2CCc3ccccc3C2)c(O)c(O)c1O)N1CCc2ccc(S(=O)(=O)N[C@@H](Cc3ccccc3)C(=O)N3CCN(C(=O)C(F)(F)F)CC3)cc2C1 [TM-1202] | > 1000 | > 1000 | –
CCC(CC)CNS(=O)(=O)c1ccc2c(c1)CN(C(=O)c1cc(S(=O)(=O)N3CCc4ccccc4C3)c(O)c(O)c1O)CC2 [TM-1216] | > 1000 | ≤ 1000 | –
O=C(c1cc(S(=O)(=O)N2CCc3ccccc3C2)c(O)c(O)c1O)N1CCc2ccc(S(=O)(=O)NCCc3cccc(Cl)c3)cc2C1 [TM-1208] | > 1000 | ≤ 1000 | –
O=C(c1cc(S(=O)(=O)N2CCc3ccccc3C2)c(O)c(O)c1O)N1CCc2ccc(S(=O)(=O)Nc3ccccc3)cc2C1 [TM-195] | > 1000 | > 1000 | –
